These results are taken from patent publication US20250020635A1, “ASSAY METHODS AND USES THEREOF FOR SCREENING ALZHEIMER'S DISEASE TREATMENT COMPOUNDS” (priority 2023, published 2025).

One data set has as its system HMC3 cells. Kind of data set: Microglial phagocytosis/cell health high-content assay, HMC3 cells. Type of data set: cell-based. The settings on record: 60 μM, 48 hrs, compared to control. The procedure: (§1) The assay introduced here is a simplified cellular imaging assay without any fixation and washing steps, while producing multiparameter measurements with high capacity using a 384-well plate format. The assay procedures include plating cells on day 1, incubating cell plates overnight before treating cells on day 2, adding pHrodo™-myelin/membrane debris to cell plates on day 3, and 20 hr later, staining cell nuclei with Hoechst-33342 for 30 min before performing high-content imaging on day 4. Three selected parameters are measured from cells: 1) mean total fluorescence intensity per cell of pHrodo™-myelin/membrane debris in phagocytosis vesicles to quantify phagocytosis; 2) cell counts per well to quantify treatment effects on proliferation and cell death; and 3) average nuclear intensity to quantify treatment-induced nuclear changes such as in apoptosis. The assay has been used on HMC3 cells (an immortalized human microglial cell line), BV2 cells (an immortalized mouse microglial cell line), and primary microglia isolated from mouse brains. For initial assay attempts, we recommend using HMC3 cells available from the ATCC.
(§2) All collected raw data are normalized to the untreated control with following formula: % of control=100×(X−Min)/(Max−Min). Factors in the formula are: X is raw data from a treated well, Max is an average measurement from pHrodo™-myelin seeded but untreated wells, and Min is an average measurement from no pHrodo™-myelin untreated wells. Normalized data are used for curve fitting that is done with the variable slope (four parameters) using the Prism software.
(§3) To ensure that the measurements reflect the steady state of compound treatment effects and cell health, the assay was set with a total compound treatment time of 48 hr, including pHrodo™-myelin/membrane debris seeding performed 20-24 hr after compound addition. […] Among many available quantitative measurements from the image analysis, we selected three parameters for the assay:
(§4) 1) The mean total intensity of phagocytosis vesicles/cell—to measure phagocytosis. There are multiple parameters generated from the image analysis, including phagocytosis vesicle area, number, and various fluorescence intensity measurements. Comparing these parameters, the total fluorescence intensity of vesicles/cell is the most sensitive one and was chosen for quantifying phagocytosis.
(§5) 2) The total cell counts—to measure overall cell viability, which is affected by proliferation and cell death. We chose to take 4 images/well (with the 10× objective lens) that cover about 50% of the total area of a well in a 384-well plate to represent cell count of the well.
(§6) 3) The average nuclear intensity—to measure drug-induced apoptosis, with high signal indicating nuclear condescension (a sign of early apoptosis) and low signal indicating DNA degradation (a sign of later apoptosis, when activated caspases digest DNA).
(§7) A phenotypic high-content imaging assay with simultaneous measurements of phagocytosis, cell number, and nuclear intensity was used to assess both cellular pharmacology and cell health. Model cell lines BV2 (immortalized mouse microglia, a gift from Dr. Michelle Block's laboratory at IUSM) and HMC3 (immortalized human microglia, obtained from ATCC, CRL-3304) were used to provide adequate throughput. Cells were cultured in DMEM GlutaMax media (ThermoFisher) containing 10% FBS and Pen-Strep in a 37° C. 5% CO2 incubator, plated in Corning Falcon 384 well Optilux Black and clear bottom plates: 400 cells/45 μl/well (BV2 cells), 600 cells/45 μl/well (HMC3 cells) and 2000 cell/45 μl/well (primary cells), and treated with 10× serially diluted compounds (60 μM-3 nM) for 48 hrs at 37° C. […]

The test system of the next data set is BV2 cells. The data set can be described thus: Microglial phagocytosis/cell health high-content assay, BV2 cells. The format is cell-based. The settings on record: for Ave. % Cell Count @ 60 uM BV2 cells / Ave. % Phagocytosis @ 60 uM BV2 cells: 48 hrs, compared to control. The procedure:
as §1, §2, §3, §4, §5, §6, §7

For another data set, the target named is T1, PLCγ2 enzyme (Homo sapiens, UniProt P16885).
T1 sequence (P16885 1-1265): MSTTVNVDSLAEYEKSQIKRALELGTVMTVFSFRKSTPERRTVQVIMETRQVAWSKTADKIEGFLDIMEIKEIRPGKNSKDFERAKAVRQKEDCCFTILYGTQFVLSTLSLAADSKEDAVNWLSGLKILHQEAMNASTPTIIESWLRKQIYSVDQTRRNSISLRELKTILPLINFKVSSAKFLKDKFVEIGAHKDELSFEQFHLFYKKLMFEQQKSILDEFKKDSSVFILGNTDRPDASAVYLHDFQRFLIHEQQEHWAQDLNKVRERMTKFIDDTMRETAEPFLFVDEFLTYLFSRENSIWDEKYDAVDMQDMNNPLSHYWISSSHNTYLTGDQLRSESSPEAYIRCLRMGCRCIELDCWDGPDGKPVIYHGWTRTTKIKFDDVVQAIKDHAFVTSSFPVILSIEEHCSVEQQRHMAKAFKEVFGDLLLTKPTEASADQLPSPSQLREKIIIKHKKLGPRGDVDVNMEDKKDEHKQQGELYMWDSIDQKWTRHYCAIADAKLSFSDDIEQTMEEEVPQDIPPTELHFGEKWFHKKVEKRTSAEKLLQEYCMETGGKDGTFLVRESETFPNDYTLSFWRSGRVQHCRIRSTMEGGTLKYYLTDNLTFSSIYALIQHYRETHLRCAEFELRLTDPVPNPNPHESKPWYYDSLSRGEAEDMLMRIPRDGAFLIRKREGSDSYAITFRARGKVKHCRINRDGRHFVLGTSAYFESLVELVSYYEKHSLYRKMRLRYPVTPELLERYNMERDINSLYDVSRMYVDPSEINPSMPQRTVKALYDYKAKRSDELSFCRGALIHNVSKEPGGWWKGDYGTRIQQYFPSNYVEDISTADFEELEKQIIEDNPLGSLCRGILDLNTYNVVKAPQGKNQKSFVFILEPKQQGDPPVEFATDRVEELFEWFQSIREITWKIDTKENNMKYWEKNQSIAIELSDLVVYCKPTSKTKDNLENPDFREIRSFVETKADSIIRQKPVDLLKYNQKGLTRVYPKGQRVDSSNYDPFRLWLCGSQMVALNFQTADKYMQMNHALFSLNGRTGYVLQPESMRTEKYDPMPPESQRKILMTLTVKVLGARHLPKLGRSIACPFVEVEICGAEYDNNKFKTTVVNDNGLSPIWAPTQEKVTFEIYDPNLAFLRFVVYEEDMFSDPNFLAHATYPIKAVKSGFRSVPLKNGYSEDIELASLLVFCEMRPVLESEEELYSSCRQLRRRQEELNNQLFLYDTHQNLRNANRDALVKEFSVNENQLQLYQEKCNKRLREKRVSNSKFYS
Kind of data set: Liposomal biochemical assay with fluorogenic probe XY-69. The note with it: for increase in PLCγ2 activity (change in slope relative to control): dose response, liposomes with XY-69. The source says: Sondek and coworkers have described an assay for PLCγ1 activity in the presence of liposomes as a model for activity at the cell membrane where the natural ligand is located.^36 The assay was redeveloped and reoptimized for PLCγ2 at the Purdue Institute for Drug Discovery. Liposomes containing XY-69 (purchased from Avanti Polar Lipids, cat. #850168) were generated using phosphatidylinositol 4,5-bisphosphate (PIP2) and 1-stearoyl-2-arachidonoyl-sn-glycero-3-phosphatidylethanolamine (lipidPE). The PLCγ2 enzyme was exposed to this solution and, after treatment with the compounds of interest, the fluorescence intensity (ex: 485 nm; em: 520 nm) was recorded every 2 min for 120 min (FIG. 19). The slope of the linear portion of the curves (up to 50 min) was compared to control giving a relative rate of reaction. Dose dependent curves of a representative sample of the compounds tested are shown (FIG. 20A-20B).

Take `Cc1cc(C)c(S(=O)(=O)Nc2cccc(C(F)(F)F)c2)c(C)c1` [Compound 1, 2,4,6-trimethyl-N-(meta-3-trifluoromethyl-phenyl)-benzenesulfonamide, reference compound]: in the data set on HMC3 cells, the “Ave. % Cell Count @ 60 uM HMC3 cells” value was 3% and the “Ave. % Phagocytosis @ 60 uM HMC3 cells” value was determined as 0%. Also, in the data set on BV2 cells, the “Ave. % Cell Count @ 60 uM BV2 cells” value amounted to 2% and the “Ave. % Phagocytosis @ 60 uM BV2 cells” value came to 0.05%. Further, the “increase in PLCγ2 activity (change in slope relative to control)” value on PLCγ2 enzyme is “among the highest increases of all analogs tested”. Besides, the “increase in PLCγ2 activity (change in slope relative to control)” value on PLCγ2 enzyme (listed as m-3M3FBS) is listed as “highest increase in response”.
Consider `Cc1cc(C)c(S(=O)(=O)Nc2ccccc2C(F)(F)F)c(C)c1` [Compound 2, o-3M3FBS, reference compound], for which, in the data set with HMC3 cells, the “Ave. % Cell Count @ 60 uM HMC3 cells” value stood at 103% and the “Ave. % Phagocytosis @ 60 uM HMC3 cells” value is listed as 99%. In the data set on BV2 cells, the “Ave. % Cell Count @ 60 uM BV2 cells” value was 104% and the “Ave. % Phagocytosis @ 60 uM BV2 cells” value was 104%. Moreover, on PLCγ2 enzyme, the “increase in PLCγ2 activity (change in slope relative to control)” value is listed as “much lower, though it still showed a statistically significant increase in activation”.
For the compound `O=S(=O)(Nc1ccc(Br)cc1F)c1cccs1` [Compound 8], in the data set with HMC3 cells, the “Ave. % Cell Count @ 60 uM HMC3 cells” value was determined as 88% and the “Ave. % Phagocytosis @ 60 uM HMC3 cells” value was determined as 104%. Further, in the data set on BV2 cells, the “Ave. % Cell Count @ 60 uM BV2 cells” value was determined as 86% and the “Ave. % Phagocytosis @ 60 uM BV2 cells” value is reported as 114%.
With `Cc1cc(C)c(S(=O)(=O)NC2CCCNC2)c(C)c1` (stereo not drawn) [Compound 11], in the data set with HMC3 cells, the “Ave. % Cell Count @ 60 uM HMC3 cells” value was 65% and the “Ave. % Phagocytosis @ 60 uM HMC3 cells” value was determined as 146%. In the data set with BV2 cells, the “Ave. % Cell Count @ 60 uM BV2 cells” value worked out at 63% and the “Ave. % Phagocytosis @ 60 uM BV2 cells” value is on record as 225%. For the same compound, the “phagocytosis increase against cell count decline” value in the data set with BV2 cells (HMC3 and BV2 cells (Table 6, FIGS. 21, 22)) is “moderate degree of potential cytotoxicity”. For the same compound, the “enzymatic activation, single dose” value on PLCγ2 enzyme (100 μM) is “no enzymatic activation”.
